# In patent US10697024B2, “Methods of determining IMiDS resistance in plasma cell disorders” (The Charlotte Mecklenburg Hospital Authority, priority 2016, dated 2020):
# Tested on: CD138-purified plasma cells
# Experiment: GEP-based pharmacogenomics of paired plasma cells prior to and 48 hours after an IMiD test dose
# Assay type: in vivo, human
# Conditions: MM patients, bone marrow plasma cells, 48 hr after test dose vs. baseline, SAM analysis; Affymetrix U95Av2 (thalidomide 400 mg/d, lenalidomide 25 to 50 mg/d) or U133Plus2.0 (pomalidomide 4 mg/d)
# Description: GEP-based pharmacogenomics of paired CD138-purified plasma cells, obtained from patients prior to and 48 hours after administration of test doses of Thal (42 newly diagnosed MM), Len (18 relapsed/refractory MM), or Pom (18 relapsed/refractory MM) were compared using significance analysis of microarrays (SAM).
# Plasma cell purifications and GEP, using the Affymetrix U133 Plus 2.0 microarray, were performed as previously described (Ref: Zhan F, Huang Y, Colla S, et al. The molecular classification of multiple myeloma. Blood. 2006; 108:2020-2028.). Samples were hybridized to Affymetrix expression arrays. Affymetrix U133Plus2.0 arrays were used in the pomalidomide study and Affymetrix U95Av2 arrays were used for thalidomide and lenalidomide pharmacogenomics studies. Bone marrow samples from MM patients enrolled in pharmacogenomics study were obtained prior to, and 48 hours after administration of a test dose of thalidomide (n=42 newly diagnosed), lenalidomide (n=18 relapsed/refractory) or pomalidomide (n=18 relapsed refractory). Plasma cell isolation from mononuclear cell fraction was performed by immunomagnetic bead selection with monoclonal anti-human CD138 antibody using the AutoMACS automated separation system (Miltenyi-Biotec) as previously described. Isolated bone marrow plasma cells were processed and analyzed for Gene-expression profiling (GEP) according to previously reported methods. Samples were hybridized to an Affymetrix U133Plus2.0 microarray for pomalidomide study and to an Affymetrix U95Av2 microarray for thalidomide and lenalidomide studies according to the manufacturer's recommendations and then read on GeneChip Scanner 3000 (Affymetrix). The data files were deposited in the ArrayExpress archive under the accession number E-TABM-1138. […]
row,SMILES,Probe sets changed (p < 0.05) after 48 hr of IMiD treatment
1,"Nc1cccc2c1CN(C1CCC(=O)NC1=O)C2=O (stereo not drawn) [Lenalidomide, lenalidomide]",1304
2,"Nc1cccc2c1C(=O)N(C1CCC(=O)NC1=O)C2=O (stereo not drawn) [Pomalidomide, pomalidomide]",4944
3,"O=C1CCC(N2C(=O)c3ccccc3C2=O)C(=O)N1 (stereo not drawn) [Thalidomide, thalidomide]",1398
